Data on 10 compounds can be found in ChEMBL document CHEMBL1201862, “PubChem BioAssay data set” (2004).

Assay in all cases: NCI tumour cell line growth inhibition, 48 h
The subject of assay [1] is ACHN.
Assay [2] has as its system BT-549.
The subject of assay [3] is DU-145.
Assay [4] deals with HCT-116.
Assay [5] has as its system HOP-62.
For assay [6], the system named is HT-29.
Assay [7] has as its system IGROV-1.
The test system of assay [8] is M14.
The test system of assay [9] is MDA-MB-231.
Assay [10] deals with NCI-H460.
For assay [11], the system named is NCI-H522.
Assay [12] has as its system OVCAR-4.
The subject of assay [13] is RPMI-8226.
The subject of assay [14] is RXF 393.
Assay [15] concerns SF-295.
Assay [16] has as its system SF-539.
Assay [17] relates to SK-MEL-2.
For assay [18], the system named is SN12C.
Assay [19] has as its system T47D.
In assay [20] the test system is U-251.

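Assay format: 96-well plates, 48-hour exposure. The concentration for 50% growth inhibition is given as GI50.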 The source made the active and inactive calls. Cut-off read from the data, not from the text of the source: active = GI50 up to about 1.1 µM and inactive = higher.

`CC12CCC(=O)C=C1CCC1C2CCC2(C)C(C(=O)Cn3cnc4c(=S)nc[nH]c43)CCC12` (stereo not given): the GI50 is 40 µM (inactive) in [1]; 28.4 µM (inactive) in assay [2]; 23.3 µM (inactive) in assay [3]; 35.9 µM (inactive) in assay [4]; 18.2 µM (inactive) in assay [5]; 33 µM (inactive) in assay [6]. In addition, the GI50 was 23.6 µM (inactive) in [7]; 27.5 µM (inactive) in assay [8]; 38.9 µM (inactive) in [9]; 28.8 µM (inactive) in assay [10]; 23.4 µM (inactive) in [11]; 17.3 µM (inactive) in assay [12]. Also, the GI50 was 25.5 µM (inactive) in [13]; 17.6 µM (inactive) in [14]; 28.2 µM (inactive) in [15]; 55.5 µM (inactive) in assay [16]; 41.9 µM (inactive) in [17]; 67.8 µM (inactive) in [18]. Also, the results for the GI50 in assay [19] and in assay [20] were 9.23 µM (inactive) and 30.1 µM (inactive), respectively.

Consider `Cc1cc2nc3[nH]c4c(Cl)cc(Cl)cc4c3nc2cc1C`, for which the GI50 in assay [1] is > 100 µM (inactive); in assay [2], 98.4 µM (inactive); in assay [3], 86.3 µM (inactive); in assay [4] it was > 100 µM (inactive); in [5], > 100 µM (inactive); in assay [6], > 100 µM (inactive). Further, the GI50 in assay [7], in assay [8], in assay [9], in [10], in [11] and in assay [12] was > 100 µM (inactive) throughout. The GI50 in [13] is > 100 µM (inactive); in assay [14], 31.6 µM (inactive); in assay [15], > 100 µM (inactive); in assay [16], 36.5 µM (inactive); in [17], > 100 µM (inactive); in assay [18], > 100 µM (inactive). Moreover, the GI50 in [19] and in assay [20] was > 100 µM (inactive) in each case.

For `CS(=O)(=O)N1CC(CCl)c2ccc(NO)cc21` (stereo not given), the GI50 is 7.94 µM (inactive) in [1]; 12 µM (inactive) in assay [2]; 6.89 µM (inactive) in [3]; 14.7 µM (inactive) in assay [4]; 17.7 µM (inactive) in assay [5]; 14.3 µM (inactive) in assay [6]. Besides, the GI50 in [7] is 13.6 µM (inactive); in [8], 16.2 µM (inactive); in assay [9] it was 15.6 µM (inactive); in assay [10], 14.9 µM (inactive); in assay [11] it was 4.17 µM (inactive); in [12], 17.5 µM (inactive). Moreover, the GI50 in assay [13] was 4.5 µM (inactive); in assay [14], 3.37 µM (inactive); in assay [15], 20 µM (inactive); in [16], 10.2 µM (inactive); in assay [17], 17.7 µM (inactive); in [18], 15.3 µM (inactive). Also, the GI50 in [19] was 21.9 µM (inactive); in assay [20] it was 11.4 µM (inactive).

`COc1cccc(/N=C/c2cc(OC)c(OC)c(OC)c2)c1`: the GI50 in assay [1] is 20.8 µM (inactive); in [2], 72.6 µM (inactive); in [3], > 100 µM (inactive); in assay [4], > 100 µM (inactive); in assay [5], 94 µM (inactive); in assay [6], 91.2 µM (inactive). The GI50 in [7] is > 100 µM (inactive); in assay [8], 36.2 µM (inactive); in assay [9] it was > 100 µM (inactive); in assay [10], 64.9 µM (inactive); in assay [11] it was > 100 µM (inactive); in assay [12] it was > 79.6 µM (inactive). In addition, the GI50 in assay [13] is > 100 µM (inactive); in assay [14], 78.7 µM (inactive); in assay [15], 69.8 µM (inactive); in [16] it was > 100 µM (inactive); in assay [17], > 85.1 µM (inactive); in assay [18], > 100 µM (inactive). Further, the values for the GI50 in assay [19] and in assay [20] were 64.3 µM (inactive) and > 100 µM (inactive), respectively.

On to `COC(=O)c1cc(O)c(O)c(O)c1-c1c(O)c(O)c(O)c(SC[C@H](NC(=O)OCc2ccccc2)C(=O)OCc2ccccc2)c1C(=O)OC`, for which the GI50 in assay [1] was 22.5 µM (inactive); in assay [2] it was 34.7 µM (inactive); in assay [3], 39.2 µM (inactive); in assay [4], 17.3 µM (inactive); in assay [5], 35.1 µM (inactive); in assay [6], 28.3 µM (inactive). Further, the GI50 was 28.8 µM (inactive) in [7]; 17.9 µM (inactive) in assay [8]; 16.7 µM (inactive) in assay [9]; 29.2 µM (inactive) in assay [10]; 22.3 µM (inactive) in assay [11]; 26.5 µM (inactive) in [12]. For the same compound, the GI50 in assay [13] is 21.8 µM (inactive); in [14], 20.2 µM (inactive); in [15], 35.3 µM (inactive); in [16], 28.4 µM (inactive); in [17], 19.9 µM (inactive); in assay [18], 19.4 µM (inactive). Besides, the values for the GI50 in assay [19] and in assay [20] were 32.4 µM (inactive) and 16.4 µM (inactive), respectively.

For the compound `Cn1c2ccccc2c2c3c(=O)[nH][nH]c(=O)c3c3c4ccccc4n(C)c3c21`, the GI50 is > 100 µM (inactive) in [1]; > 100 µM (inactive) in assay [2]; > 100 µM (inactive) in assay [3]; 78.3 µM (inactive) in [4]; > 96.6 µM (inactive) in [5]; > 100 µM (inactive) in assay [6]. In addition, the GI50 was > 100 µM (inactive) in assay [7]; > 84.5 µM (inactive) in assay [8]; > 100 µM (inactive) in assay [9]; 16.9 µM (inactive) in assay [10]; 1.09 µM (active) in assay [11]; > 64.3 µM (inactive) in [12]. For the same compound, the GI50 in assay [13] was 13.6 µM (inactive); in [14] it was > 100 µM (inactive); in assay [15] it was > 100 µM (inactive); in [16], > 100 µM (inactive); in assay [17] it was > 100 µM (inactive); in assay [18], > 100 µM (inactive). The GI50 was 0.284 µM (active) in [19] and > 100 µM (inactive) in assay [20].

For the compound `O=C([C@H](O)[C@@H](O)c1cccc(Cl)c1)C12CC3CC(CC(C3)C1)C2`, the GI50 in assay [1] is 1.91 µM (inactive); in assay [2], 1.87 µM (inactive); in assay [3], 2.25 µM (inactive); in assay [4] it was 1.86 µM (inactive); in assay [5], 2.69 µM (inactive); in assay [6] it was 2.37 µM (inactive). Also, the GI50 was 1.34 µM (inactive) in assay [7]; 2.45 µM (inactive) in [8]; 2.12 µM (inactive) in assay [9]; 1.85 µM (inactive) in assay [10]; 2.23 µM (inactive) in [11]; 2.4 µM (inactive) in assay [12]. The GI50 in assay [13] is 0.838 µM (active); in assay [14] it was 2.37 µM (inactive); in assay [15] it was 3.15 µM (inactive); in assay [16], 1.77 µM (inactive); in assay [17], 1.95 µM (inactive); in [18] it was 1.61 µM (inactive). Besides, the GI50 in [19] was 2.16 µM (inactive); in assay [20], 1.53 µM (inactive).

Take `C=C1C(=O)O[C@H]2[C@@H](O)[C@H](C)CCC/C(C)=C/CC[C@@]3(C)O[C@@H]3C[C@@H]12`: the GI50 in assay [1] is 2.16 µM (inactive); in assay [2] it was 3.3 µM (inactive); in assay [3], 6.03 µM (inactive); in [4], 3.19 µM (inactive); in assay [5] it was 22.3 µM (inactive); in assay [6], 5.45 µM (inactive). For the same compound, the GI50 in assay [7] is 3.5 µM (inactive); in assay [8], 3.94 µM (inactive); in assay [9], 12.9 µM (inactive); in [10] it was 5.89 µM (inactive); in assay [11], 2.68 µM (inactive); in assay [12] it was 7.16 µM (inactive). The GI50 in assay [13] was 8.38 µM (inactive); in [14], 2.85 µM (inactive); in [15] it was 18.1 µM (inactive); in [16], 2.59 µM (inactive); in [17] it was 18.1 µM (inactive); in assay [18] it was 5.77 µM (inactive). In addition, the GI50 in assay [19] was 3.4 µM (inactive); in assay [20], 8.73 µM (inactive).

For the compound `CN(C)C(=S)/N=c1\ssc(=S)n1Cc1cccs1`, the GI50 in assay [1] is 9.35 µM (inactive); in assay [2], 11 µM (inactive); in assay [3] it was 3.24 µM (inactive); in [4] it was 3.15 µM (inactive); in assay [5] it was 3.64 µM (inactive); in [6], 2.62 µM (inactive). Also, the GI50 is 4.11 µM (inactive) in assay [7]; 3.01 µM (inactive) in assay [8]; 4.42 µM (inactive) in assay [9]; 3.73 µM (inactive) in assay [10]; 0.39 µM (active) in assay [11]; 14.6 µM (inactive) in assay [12]. For the same compound, the GI50 in assay [13] is 5.81 µM (inactive); in [14] it was 2.19 µM (inactive); in assay [15], 1.93 µM (inactive); in assay [16] it was 2.55 µM (inactive); in assay [17], 2.88 µM (inactive); in assay [18], 6.9 µM (inactive). The GI50 in assay [19] is 8.51 µM (inactive); in assay [20], 3.76 µM (inactive).

In the case of `CCCCOCCOC1=C(Cl)C(=O)c2c(O)ccc(O)c2C1=O`, the GI50 was 0.321 µM (active) in assay [1]; 0.175 µM (active) in assay [2]; 1.66 µM (inactive) in assay [3]; 0.261 µM (active) in assay [4]; 1.17 µM (inactive) in [5]; 0.689 µM (active) in [6]. Further, the GI50 is 0.855 µM (active) in [7]; 0.217 µM (active) in [8]; 0.493 µM (active) in assay [9]; 1.49 µM (inactive) in assay [10]; 0.392 µM (active) in [11]; 0.822 µM (active) in [12]. The GI50 in [13] was 0.255 µM (active); in assay [14], 0.227 µM (active); in assay [15], 1.53 µM (inactive); in assay [16] it was 0.993 µM (active); in [17], 1.37 µM (inactive); in assay [18], 0.465 µM (active). Besides, the GI50 was 0.532 µM (active) in [19] and 1.32 µM (inactive) in assay [20].
